Here are results for two molecules from US20180183541A9, “A New Treatment For Improving The Use Of Dietary Sugar For Energy Purposes” (Nutravis S.r.l., priority 2014, published 2018).

Read-outs that look alike come from different tables or passages of the source.

One data set deals with Male CD1 mice. The experiment in a line: Muscle performance in mice (spontaneous wheel running). Format: in vivo, mouse. Conditions: ABA 1 μg/Kg BW with glucose 1 g/Kg BW for 12 weeks. The protocol:
Male CD1 mice (outbread) (8 per group) were administered glucose with the drinking water without (controls) or with the addition of synthetic ABA. The concentrations of glucose and of ABA in water were calculated considering the average daily volume drank by each mice so as to reach a dose of 1 g/Kg BW and 1 μg/Kg BW of ABA. After 12 weeks of treatment the mice (average weight 45.1 and 43.3 grams for the animals treated with glucose and glucose+ABA, respectively) were kept 12 hours in two separate cages, each equipped with a wheel connected to a digital odometer measuring the total distance traveled on the wheel and the time of rotation of the wheel. The tests were performed during the night time on animals with freely available food and water containing glucose alone (controls) or glucose+ABA. The reason for using male CD1 mice for this experiment is their natural predisposition to develop more muscle mass compared to females from the same strain.
Table 6. […] Male CD1mice (outbred) (8/group) with a mean weight of 45.1 and 43.3 g for animals treated with glucose and glucose+ABA, respectively, were kept for the same time (12 hours) in two cages, each containing a wheel connected to a digital cyclometer, capable of measuring the total distance travelled and the duration of rotation of the wheel. The tests (n=2 for each group of animals) were performed during the night hours, with ad libitum food and water, containing glucose (controls) or glucose+ABA.

Data set [1] is described as follows: Stability tests of ABA at high temperatures (autoclave sterilization). In kind it is physicochemical. Conditions: autoclave sterilization at 121° C. for 8 min; HPLC-MS. The protocol:
Experiments were performed to evaluate the heat stability of synthetic ABA or of ABA naturally present in aqueous and supercritical extracts. Samples containing known nanomolar concentrations of ABA (either synthetic or present in the extracts) were divided into two aliquots of equal volume and subjected or not (control) to autoclave sterilization at 121° C. for 8 min (the condition generally applied to the sterilization of food). After sterilization, 100 μl of each aliquot and its un-sterilized control were injected into an analytical Hypercarb column (Thermo Scientific, Pittsburgh, Pa.) (4.6×100 mm; particle size 5 μm). Solvent A was water containing 0.1% formic acid (FOA), solvent B was acetonitrile containing 0.1% FOA and solvent flux was 0.8 ml/min. The linear elution gradient was from 100% A to 100% B in 30 min. Fractions were taken every 30 sec, lyophilized, re-dissolved in 11 μl of a solution composed of 90% solvent A and 10% solvent B of the HPLC-coupled mass spectrometry analysis and [^2H6]-ABA was added as an internal standard. Samples were analyzed as previously described under “Determination of the ABA content in several foods”. The amount of ABA present in the aliquots subjected to sterilization was unchanged compared with that measured in the control samples.

The nature of data set [2]: Body weight gain induced by chronic high-dose glucose in mice. In kind it is in vivo, mouse. Particulars: female CD1 mice, ABA 1 μg/Kg BW with glucose 1 g/Kg BW daily in drinking water, 12 weeks. The protocol:
Five, week-old female CD1 mice (outbread) (9 per group) were administered glucose in the drinking water, without (controls) or with the addition of synthetic ABA. To achieve the required daily dose of glucose (1 g/kg BW) and of ABA (1 μg/Kg BW) the daily volume of water drank by the animals used for the test was preliminary established. Based on this volume (5 ml/day), and taking into account an average weight of the mice of 30 grams, the water administered to the animals, contained 0,006 g/ml of glucose and 0,006 μg/ml ABA. The weight control was performed after 12 weeks of treatment on the two groups of animals fasted for 17 hours before measurement of the weight. The reason for using female CD1 for this test was that they show a natural predisposition to accumulation of adipose tissue that is not found, instead, in males of the same strain.
FIG. 8. Daily oral intake of synthetic ABA at the dose of 1 μg/Kg reduces the body weight increase induced by the chronic intake of high-dose glucose (1g/Kg) in mice. Five-week old female CD1 mice (outbred) (9/group) received daily, in the drinking water, a glucose solution without (controls) or with synthetic ABA (see Materials and Methods for details). Body weight was determined after 12 weeks of treatment, and both groups of animals were fasted for 17 hours before measurement. […]

A further data set deals with myoblasts. Conditions: myoblasts incubated in vitro with 100 nM ABA (Bruzzone et al. 2012); cited from earlier work.
The next data set has as its system db/db mice. Conditions: cited from earlier work.
Data set [3] can be described thus: In vivo hydrolysis of orally given ABA-GE to ABA, plasma HPLC-MS. Set-up: species or system rat. Particulars: 30 and 60 min after gavage of synthetic ABA-GE, Wistar rats n=3. An excerpt: Wistar rats (n=3) were given an amount of synthetic ABA-GE by gavage in order to evaluate its in vivo hydrolysis, resulting in the release of ABA. […] Therefore, the ABA-GE present in the aqueous apricot extract contributes to the effective dose of ABA taken with the extract, as it can be hydrolyzed to yield free ABA.
FIG. 4: HPLC-MS analysis of representative plasma samples from a rat subjected to gavage with a solution containing synthetic ABA-GE. […] The amount of ABA released by hydrolysis from its conjugated form ABA-GE at different times (30 and 60 min after gavage) was measured by HPLC-MS. The coefficient of absorbance of ABA-GE at 254 nm, used for chromatographic analysis, is approximately 10 times lower than that of free ABA. This explains the different area of their respective chromatographic peaks.

[4] abbreviates: synthetic ABA 1 μg/Kg BW during OGTT.
The mark [5] stands for this setting: synthetic ABA 1 μg/Kg BW with glucose 1 g/Kg BW by gavage.

Procedure for Wistar male rats: For the determination of blood glucose in rats, blood samples were taken from the tail vein of anesthetized animals and blood glucose was measured with a glucometer (Bayer). The quantification of insulin on the same animals, was carried out by sampling blood from the orbital sinus, immediately adding heparin and subjecting each sample to centrifugation at 22000×g for 30 sec: aliquots of plasma were stored at −20° C. The plasma insulin concentration was determined with an ELISA kit (Bertin-Pharma, Montigny, France).
Wistar male rats (obtained from Charles River, Milan, Italy), age between 9 and 13 weeks, were divided into two groups (12 animals per group) and fasted for 17 hours. After mild sedation with diazepam, 1 g/kg BW of glucose was administered by gavage in about 300-400 μl of aqueous solution, containing or not 1 μg/Kg BW of synthetic ABA, or the same dose of ABA or ABA-GE endogenously present in a supercritical or water plant extract. Immediately after gavage, rats were anesthetized with xylazine and ketamine. Blood glucose was measured with a glucometer on blood taken from the tail vein immediately before gavage (time zero) and 15, 30 and 60 minutes after gavage. Each measurement was performed in duplicate.
Two groups of male Wistar rats (12 animals per group), fasted for 17 hours, were subjected to an OGTT (1 g/Kg BW glucose) , without or with 1 μg/Kg BW of synthetic ABA. Glycemia was measured with a glucometer in duplicate on blood taken from the tail vein at baseline (immediately before gavage) and at the indicated times after gavage. Insulinemia was measured by ELISA, in duplicate on plasma samples. Results are mean ±SD.

As to `CC1=CC(=O)CC(C)(C)C1(O)/C=C/C(C)=C\C(=O)O` (racemic) [ABA, 2-cis, 4-trans-abscisic acid], the “maximal speed recorded compared with that of the controls” value in the data set on Male CD1 mice came out at 3.2 times. In addition, in the data set with Male CD1 mice (wheel available 12 hours), the “Time of use” value is 105 min and the “Total distance covered (m)” value is given as 2693 m. For the same molecule, in data set [1], the “amount of ABA after sterilization compared with control samples” value is listed as “unchanged”. In data set [2], the “weight increase compared to the controls” value is “significantly lower weight increase”. In the data set on myoblasts, the glucose transport entry is listed as “increased glucose transport”. In addition, in the data set on db/db mice (dietary intake, mice diabetic by leptin receptor mutation (Guri et al., 2007)), the “minimum effective dose improving glucose tolerance” value is reported as 100 mg/kg. The “weight increase compared with the controls” value in the data set on db/db mice (mice chronically treated with ABA at 100 mg/Kg BW (literature)) is recorded as “not dissimilar compared with the controls”. Moreover, the “glycemic profile compared to the controls” value in the data set with Wistar male rats (ABA 95 μg/Kg BW during OGTT) was “reduced compared to the controls”. Moreover, in the data set on Wistar male rats (ABA 100 mg/Kg BW during OGTT), the “glycemic profile compared to the controls” value is “reduced compared to the controls” and the “insulin AUC compared to control rats” value was “comparable to that of control rats”. Also, in the data set with Wistar male rats (ABA 1 and up to 95 μg/Kg BW), the “insulin response to the glucose load” value was “significant decrease”. Moreover, the “plasma concentration corresponding to the dose” value in the data set with Wistar male rats (male, Wistar, rat, in vivo) is reported as “less than 10 nM”. For the same molecule, in the data set with Wistar male rats (setting [4]), the “mean level of plasmatic insulin compared to controls” value is “significantly lower” and the “reduction of insulin AUC compared to controls” value was “about 15 times”. Besides, in the data set on Wistar male rats (setting [5]), the “AUC of glycemia compared to the controls” value was “significantly lower AUC of glycemia” and the “glycemic profile compared to the controls” value was “significantly reduced glycemic profile”.

On to `CC1=CC(=O)CC(C)(C)[C@@]1(O)/C=C/C(C)=C\C(=O)O[C@@H]1O[C@H](CO)[C@@H](O)[C@H](O)[C@H]1O` [ABA-GE, ABA-glucosyl ester], for which, in data set [3], the “chromatographic peak of free ABA in plasma compared to 0 min” value is given as “marked increase”.
